Measurements as given in patent US7250505B1, “Isolation and expression of a disabled protein gene mDab1 and methods” (Fred Hutchinson Cancer Research Center, priority 1997, dated 2007).
Blank lines part the entries; values can stand above or below the compound they belong to. No end group written: not given here.

Experiments:
mDab1 PTB [1] = molecular target: T1, mDab1 PTB (Mus musculus, UniProt P97318); experiment: GST-mDab1 PTB binding of tyrosine phosphorylated proteins from E13 mouse head lysates in the presence of phosphoamino acid competitors; conditions: competitor in binding buffer (50 mM)
T1 construct: the region corresponding to the mDab1 PTB, residues 29 to 197; made in house; host or cells: Escherichia coli strain TG-1
T1 sequence (P97318 29-197): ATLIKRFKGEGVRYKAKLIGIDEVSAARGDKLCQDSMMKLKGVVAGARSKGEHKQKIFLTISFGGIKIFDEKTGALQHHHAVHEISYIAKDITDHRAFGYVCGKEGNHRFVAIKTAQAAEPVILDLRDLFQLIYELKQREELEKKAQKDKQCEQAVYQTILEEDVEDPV
Description: Lysates from 293T cells transfected with retroviral vectors encoding mDab555 alone; Src 527F alone; Src527F and mDab555 together; or Src527F and mDab1 98/200F, which is described in more detail below, were either bound to immobilized GST fusions proteins or were immunoprecipitated with anti-mDab1 or preimmune antibodies. Binding assays and analysis were carried out essentially as described for immunoprecipitations with 5 μg of GST fusion protein immobilized on glutathione agarose beads. Phenyl phosphate and phosphoserine were used at 50 mM for competition experiments. After washing, mDab1 bound to the immobilized SH2 domains was detected by immunoblotting. […] The Abl and Csk SH2 domains do form high affinity complexes with other tyrosine phosphorylated molecules however (Sabe et al., Proc. Natl. Acad. Sci. USA 91:3984-3988 (1994); Duyster et al., ibid. (1995)).
To examine whether the mDab1 PTB binds proteins that are tyrosine phosphorylated during neural development, a GST fusion protein containing the mDab1 PTB, a mutant mDab1 PTB in which Arg 56 was changed to Glu (mDab1 56E) or GST alone. was incubated with lysates from E13 mouse heads. Bound proteins were eluted, resolved and immunoblotted with anti-phosphotyrosine antibodies. The mDab1 PTB bound tyrosine phosphorylated proteins of 200, 120, 50-65 and 40 kDa.
To test whether the binding of proteins to the mDab1 PTB is phosphotyrosine dependent, binding experiments were done in the presence of the phosphotyrosine analog phenylphosphate. The assays was conducted as described above and phenylphosphate or phosphoserine were included in the binding buffer to investigate binding specificity. Proteins were eluted and analyzed as described above. […] However the binding of the 50-65 kDa proteins was not affected by either competitor.

mDab1 PTB domain = molecular target: T2, mDab1 PTB domain (Mus musculus, UniProt P97318); experiment: Binding of radioactively labeled GST-mDab1 PTB domain fusion protein to synthetic peptides in a grid array on cellulose; conditions: 15 to 17 residue peptides with NPXY motifs on cellulose sheet
T2 construct: the region corresponding to the mDab1 PTB, residues 29 to 197; made in house; host or cells: Escherichia coli strain TG-1
T2 sequence (P97318 29-197): T1 sequence (P97318 29-197)
Description: The ability of the mDab1 PTB domain to interact directly with synthetic peptides based on the sequences identified in the two-hybrid screen was tested to identify the optimal sequence for mDab1 PTB domain binding. […] The purified, radioactive fusion protein was then incubated with a sheet of cellulose paper onto which different 15 to 17 residue synthetic peptides had been synthesized in a grid array (Niebuhr, et al., EMBO J. 16:5433-5444 (1997), incorporated herein by reference). Each sheet contained up to 100 different peptide sequences. After incubation, the sheet was washed and exposed to film, and bound PTB domain fusion protein was quantified. […] The mDab1 PTB domain was tested against peptides containing NPXY motifs from APP, the APP relatives APLP1 and APLP2, LRP, the LRP-related LDL receptor, Ship, and known ligands for the Shc and IRS-1 PTB domains, namely the EGF receptor, HER3 receptor, NGF receptor (TrkA), and insulin receptor. The mDab1 PTB domain was also tested against peptide motifs with phosphotyrosine in place of the tyrosine of the NPXY sequence (i.e. NPXpY peptides). The amount of radioactivity associated with each peptide was quantified with a PhosphorImager (Molecular Dynamics), and depicted as a percentage of that which associated with the APP peptide.
To determine which residues in the APP sequence are involved in the interaction with the mDab1 PTB, an array of peptides based on the APP sequence with alanine substituted at each position in turn were synthesized. The ability of each peptide to bind to the PTB domain was compared to wild-type. […] Only the side chains of residues on the amino-terminal side of the NPXY motif appear to influence the strength of the interaction.
To determine the features of the APP peptide that were recognized by the mDab1 PTB domain, all nineteen amino acids, except cysteine, were substituted at several positions. In all cases the mDab1 PTB domain bound better to the wild-type APP sequence than to any altered sequence. Most substitutions of residues Gly-6, Tyr-5, Asn-3, Pro-2 and Tyr-0 inhibited PTB domain binding by greater than 80%. […] For example, the significant binding of the p150 Ship, LRP, and LDL receptor peptides implies that replacement of Tyr-5 with phenylalanine is permitted provided other changes are also made.

mDab1 PTB [2] = molecular target: T1, mDab1 PTB; experiment: Competition of GST-mDab1 PTB binding to LUVs containing PtdIns4,5P2 by inositol phosphates
Description: GST fusion proteins containing the Shc or mDab1 PTB domain were compared for their ability to bind LUVs that contained phosphotidylisositol 4,5 P2 (PtdIns4,5P2), phosphatidylserine (PtdSer) and phosphatidylethanolamine (PtdEth). Methods for the production of LUVs and assays for binding to Shc phosphotyrosine-binding domains can found in Ravichandran, et al., Mol. Cell. Biol. 17:5540-5549 (1997) which is incorporated herein by reference. After the fusion proteins and a GST control were incubated with the LUVs the reactions were centrifuged and the presence of the fusion proteins were detected by SDS PAGE and Western blotting with antibodies to GST as described above. GST-Shc PTB and GST-mDab1 PTB fusion proteins were found in the high speed pellet fraction in the presence of but not in the absence of LUVs. While the GST fusion protein control was found in the high speed supernatant in the presence of absence of the LUVs.
The specificity of mDab1 PTB binding to phospholipids was also determined. For these studies LUVs were prepared containing equal quantities of PtdSer, phosphatidylcholine (PtdCho) and Ptd Eth, and 0 or 5% by weight of PtdIns4P, PtdIns4,5P2, or PdtIns3,4,5P3. This corresponded to approximately 7.5 μM phosphoinositide in the outer leaflet of the lipid bilayer. Detection of binding to the LUVs was determined as described above.
mDab1 PTB binding to LUVs containing phosphoinositides in the presence of various phosphorylated isomers of inositol was also examined to determine whether the binding of mDab1 PTB to phosphoinositides was specific or was the result of a strong affinity for strongly anionic phospholipids. […] Binding was competed with D-Ins1,4,5P3, but not by L-Ins1, 4,5P3.

Compound: O=P(O)(O)O[C@@H]1[C@H](O)[C@H](O)[C@@H](OP(=O)(O)O)[C@H](OP(=O)(O)O)[C@H]1O [D-Ins1,4,5P3]
competition of GST-mDab1 PTB binding to LUVs containing PtdIns4,5P2 (mDab1 PTB [2]; competitor at 30 μM): weak competition | competition of GST-mDab1 PTB binding to LUVs containing PtdIns4,5P2 (mDab1 PTB [2]; competitor at 100 μM): competed

Compound: NFTNPVY [SEQ ID NO:28, peptide with the more carboxy-terminal NPXY motif of LRP]
binding of mDab1 PTB domain to peptide (mDab1 PTB domain): bound

Compound: NFDNPVY [SEQ ID NO:29]
binding of mDab1 PTB domain to peptide (mDab1 PTB domain): bound

Compound: O=P(O)(O)Oc1ccccc1 [phenylphosphate]
binding of the 50-65 kDa proteins to mDab1 PTB in presence of competitor (mDab1 PTB [1]): not affected | binding of the 120 and 40 kDa phosphotyrosyl proteins to mDab1 PTB in presence of competitor (mDab1 PTB [1]): reduced significantly

Compound: O=P(O)(O)O[C@@H]1[C@@H](O)[C@H](OP(=O)(O)O)[C@@H](OP(=O)(O)O)[C@H](O)[C@@H]1O [L-Ins1, 4,5P3]
competition of GST-mDab1 PTB binding to LUVs containing PtdIns4,5P2 (mDab1 PTB [2]; competitor at 100 μM): not

The remaining lines, values ahead:

binding of the 50-65 kDa proteins to mDab1 PTB in presence of competitor (mDab1 PTB [1]): not affected | binding of the 120 and 40 kDa phosphotyrosyl proteins to mDab1 PTB in presence of competitor (mDab1 PTB [1]): to a less extent
Compound: N[C@@H](COP(=O)(O)O)C(=O)O [phosphoserine]

binding of mDab1 PTB domain to peptide (mDab1 PTB domain): failed to interact
Compound: NSSNPEY [SEQ ID NO:34]

binding of mDab1 PTB domain to peptide (mDab1 PTB domain): failed to interact
Compound: NVGNPEY [SEQ ID NO:32]

binding of mDab1 PTB domain to peptide (mDab1 PTB domain): failed to interact
Compound: IIENPQY [SEQ ID NO:33]

binding of mDab1 PTB domain to peptide (mDab1 PTB domain): better than the other
Compound: MFENPLY [SEQ ID NO:30]
